# From patent US20160106102A1, “KNOWN AND NEW HETEROCYCLIC COMPOUNDS AS PEST CONTROL AGENTS” (BAYER CROPSCIENCE AKTIENGESELLSCHAFT, priority 2013, published 2016)
# Values joined by “and” are separate entries in the source; they are usually repeats but may differ in a detail not shown here. Identical values can stand only once.
# System: Myzus persicae
# Experiment: Myzus persicae - spray test
# Assay type: in vivo
# Conditions: application rate of 500 g/ha; after 6 days; sprayed Chinese cabbage leaf discs infested by all stages; 100% = all aphids killed
# How it was run: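 Chinese cabbage leaf discs infested with all stages of green peach aphid sprayed with compound in acetone/DMF formulation with alkylaryl polyglycol ether emulsifier, diluted in emulsifier-containing water. Efficacy (% aphids killed) assessed after 6 days.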
row,SMILES,efficacy in %
1,C#CCn1nc(NC(=O)c2cccnc2)cc1CC [Compound I-1-40],90%
2,C#CCn1nc(NC(=O)c2cccnc2)cc1C [Compound I-1-19],100%
3,COCn1nc(N(C)C(=O)c2cccnc2)cc1C [Compound I-1-178],100%
4,Cc1cc(NC(=O)c2cccnc2)nn1C(=O)c1cccnc1 [Compound I-1-28],90%
5,Cc1cc(NC(=O)c2cccnc2)nn1CC1OCCO1 [Compound I-1-180],100%
6,COCn1nc(NC(=O)c2cccnc2)cc1C [Compound I-1-175],100%
7,Cc1cc(NC(=O)c2cccnc2)nn1C(C)C [Compound I-1-49],80%
8,COc1nn(Cn2nc(NC(=O)c3cccnc3)cc2C)c(=O)n1C1CC1 [Compound I-1-144],90%
9,Cc1cc(N(CC#N)C(=O)c2cccnc2)nn1Cc1ncccn1 [Compound I-1-262],90%
10,Cc1cc(NC(=O)c2cccnc2)nn1-c1cnccn1 [Compound I-1-55],80%
11,Cc1cc(NC(=O)c2cccnc2)nn1CC(F)(F)F [Compound I-1-133],90%
12,COCC(C)NC(=O)n1nc(NC(=O)c2cccnc2)cc1C (centres unmarked) [Compound I-1-166],100%
13,Cc1cc(C)nc(Cn2nc(NC(=O)c3cccnc3)cc2C)n1 [Compound I-1-36],90%
14,Cc1cc(NC(=O)c2cccnc2)nn1Cc1nc2ccc(Cl)cc2o1 [Compound I-1-342],90%
15,Cc1cc(NC(=O)c2cccnc2)nn1Cc1ccccn1 [Compound I-1-6],90%
16,Cc1cc(NC(=O)c2cccnc2)nn1CC[S+](C)[O-] (centres unmarked) [Compound I-1-183],90%
17,Cc1cc(NC(=O)c2cccnc2)nn1C1CCCC1 [Compound I-1-229],90%
18,Cc1cc(NC(=O)c2cccnc2)nn1-c1ncccc1Cl [Compound I-1-34],100%
19,Cc1ccn(Cn2nc(NC(=O)c3cccnc3)cc2C)n1 [Compound I-1-192],100%
20,Cc1cc(NC(=O)c2cccnc2)nn1C(=O)NCC1COCCO1 (centres unmarked) [Compound I-1-310],100%
21,CSCCn1nc(NC(=O)c2cccnc2)cc1C [Compound I-1-184],90%
22,COCC(=O)n1nc(NC(=O)c2cccnc2)cc1C [Compound I-1-261],100%
23,Cc1cc(NC(=O)c2cccnc2)nn1S(=O)(=O)N(C)C [Compound I-1-231],90%
24,Cc1cc(NC(=O)c2cccnc2)nn1CC(C)C [Compound I-1-12],80%
25,Cc1cc(NC(=O)c2cccnc2)nn1Cc1nccs1 [Compound I-1-14],80%
26,Cc1ccnn1Cn1nc(NC(=O)c2cccnc2)cc1C [Compound I-1-220],90%
27,Cc1cc(NC(=O)c2cccnc2)nn1CCF [Compound I-1-5],90%
28,Cc1cc(NC(=O)c2cccnc2)nn1Cc1ccccc1 [Compound I-1-46],100% and 90%

# System: not listed separately
# Experiment: log P determination by LC-MS in the acidic range
# Assay type: physicochemical
# Conditions: LC-MS in the acidic range
# From the text: The LC-MS determination in the acidic range is effected at pH 2.7 using 0.1% aqueous formic acid and acetonitrile (contains 0.1% formic acid) as eluents, linear gradient from 10% acetonitrile to 95% acetonitrile. Alternatively, the determination is effected in the acidic range at pH 2.3 using 0.1% aqueous phosphoric acid and acetonitrile as eluents; linear gradient from 10% acetonitrile to 95% acetonitrile.
row,SMILES,log P (acid)
1,C#CCn1nc(NC(=O)c2cccnc2)cc1CC [Compound I-1-40],1.31
2,C#CCn1nc(NC(=O)c2cccnc2)cc1C [Compound I-1-19],0.93
3,COCn1nc(N(C)C(=O)c2cccnc2)cc1C [Compound I-1-178],0.7
4,Cc1cc(NC(=O)c2cccnc2)nn1C(=O)c1cccnc1 [Compound I-1-28],1.57
5,Cc1cc(NC(=O)c2cccnc2)nn1CC1OCCO1 [Compound I-1-180],0.81
6,COCn1nc(NC(=O)c2cccnc2)cc1C [Compound I-1-175],0.71
7,Cc1cc(NC(=O)c2cccnc2)nn1C(C)C [Compound I-1-49],1.4
8,COc1nn(Cn2nc(NC(=O)c3cccnc3)cc2C)c(=O)n1C1CC1 [Compound I-1-144],1.27
9,Cc1cc(N(CC#N)C(=O)c2cccnc2)nn1Cc1ncccn1 [Compound I-1-262],0.84
10,Cc1cc(NC(=O)c2cccnc2)nn1-c1cnccn1 [Compound I-1-55],1.27
11,Cc1cc(NC(=O)c2cccnc2)nn1CC(F)(F)F [Compound I-1-133],1.32
12,COCC(C)NC(=O)n1nc(NC(=O)c2cccnc2)cc1C (centres unmarked) [Compound I-1-166],1.44
13,Cc1cc(C)nc(Cn2nc(NC(=O)c3cccnc3)cc2C)n1 [Compound I-1-36],1.2
14,Cc1cc(NC(=O)c2cccnc2)nn1Cc1nc2ccc(Cl)cc2o1 [Compound I-1-342],1.82
15,Cc1cc(NC(=O)c2cccnc2)nn1Cc1ccccn1 [Compound I-1-6],0.88
16,Cc1cc(NC(=O)c2cccnc2)nn1CC[S+](C)[O-] (centres unmarked) [Compound I-1-183],0.25
17,Cc1cc(NC(=O)c2cccnc2)nn1C1CCCC1 [Compound I-1-229],1.74
18,Cc1cc(NC(=O)c2cccnc2)nn1-c1ncccc1Cl [Compound I-1-34],1.35
19,Cc1ccn(Cn2nc(NC(=O)c3cccnc3)cc2C)n1 [Compound I-1-192],1.16
20,Cc1cc(NC(=O)c2cccnc2)nn1C(=O)NCC1COCCO1 (centres unmarked) [Compound I-1-310],1.2
21,CSCCn1nc(NC(=O)c2cccnc2)cc1C [Compound I-1-184],1.22
22,COCC(=O)n1nc(NC(=O)c2cccnc2)cc1C [Compound I-1-261],1.17
23,Cc1cc(NC(=O)c2cccnc2)nn1S(=O)(=O)N(C)C [Compound I-1-231],1.52
24,Cc1cc(NC(=O)c2cccnc2)nn1CC(C)C [Compound I-1-12],1.59
25,Cc1cc(NC(=O)c2cccnc2)nn1Cc1nccs1 [Compound I-1-14],1.05
26,Cc1ccnn1Cn1nc(NC(=O)c2cccnc2)cc1C [Compound I-1-220],1.17
27,Cc1cc(NC(=O)c2cccnc2)nn1CCF [Compound I-1-5],0.84
28,Cc1cc(NC(=O)c2cccnc2)nn1Cc1ccccc1 [Compound I-1-46],1.79

# System: Myzus persicae
# Experiment: Myzus persicae - sachet test
# Assay type: in vivo
# Conditions: application rate of 6 ppm in nutrient medium; 100% = all animals killed
# How it was run: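 Green peach aphids feed through a sealed sachet on nutrient medium containing the water-diluted formulation (solvents: 2% N-methylpyrrolidone, 2% diacetone alcohol). Percent mortality read after the chosen time; 100% means all animals killed.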
row,SMILES,efficacy (kill in %)
1,C#CCn1nc(NC(=O)c2cccnc2)cc1CC [Compound I-1-40],100%
2,C#CCn1nc(NC(=O)c2cccnc2)cc1C [Compound I-1-19],100%
3,Cc1cc(NC(=O)c2cccnc2)nn1C(=O)c1cccnc1 [Compound I-1-28],100%
4,Cc1cc(NC(=O)c2cccnc2)nn1CC1OCCO1 [Compound I-1-180],80%
5,COCn1nc(NC(=O)c2cccnc2)cc1C [Compound I-1-175],100%
6,Cc1cc(NC(=O)c2cccnc2)nn1C(C)C [Compound I-1-49],100%
7,COc1nn(Cn2nc(NC(=O)c3cccnc3)cc2C)c(=O)n1C1CC1 [Compound I-1-144],100%
8,Cc1cc(N(CC#N)C(=O)c2cccnc2)nn1Cc1ncccn1 [Compound I-1-262],100%
9,Cc1cc(NC(=O)c2cccnc2)nn1CC(F)(F)F [Compound I-1-133],100%
10,COCC(C)NC(=O)n1nc(NC(=O)c2cccnc2)cc1C (centres unmarked) [Compound I-1-166],100%
11,Cc1cc(C)nc(Cn2nc(NC(=O)c3cccnc3)cc2C)n1 [Compound I-1-36],100%
12,Cc1cc(NC(=O)c2cccnc2)nn1Cc1nc2ccc(Cl)cc2o1 [Compound I-1-342],100%
13,Cc1cc(NC(=O)c2cccnc2)nn1Cc1ccccn1 [Compound I-1-6],100%
14,Cc1cc(NC(=O)c2cccnc2)nn1CC[S+](C)[O-] (centres unmarked) [Compound I-1-183],100%
15,Cc1cc(NC(=O)c2cccnc2)nn1C1CCCC1 [Compound I-1-229],100%
16,Cc1cc(NC(=O)c2cccnc2)nn1-c1ncccc1Cl [Compound I-1-34],100%
17,Cc1ccn(Cn2nc(NC(=O)c3cccnc3)cc2C)n1 [Compound I-1-192],100%
18,Cc1cc(NC(=O)c2cccnc2)nn1C(=O)NCC1COCCO1 (centres unmarked) [Compound I-1-310],100%
19,CSCCn1nc(NC(=O)c2cccnc2)cc1C [Compound I-1-184],100%
20,COCC(=O)n1nc(NC(=O)c2cccnc2)cc1C [Compound I-1-261],100%
21,Cc1cc(NC(=O)c2cccnc2)nn1S(=O)(=O)N(C)C [Compound I-1-231],100%
22,Cc1cc(NC(=O)c2cccnc2)nn1CC(C)C [Compound I-1-12],100%
23,Cc1cc(NC(=O)c2cccnc2)nn1Cc1nccs1 [Compound I-1-14],100%
24,Cc1ccnn1Cn1nc(NC(=O)c2cccnc2)cc1C [Compound I-1-220],100%
25,Cc1cc(NC(=O)c2cccnc2)nn1CCF [Compound I-1-5],100%
26,Cc1cc(NC(=O)c2cccnc2)nn1Cc1ccccc1 [Compound I-1-46],100%

# Same assay, conditions: application rate of 30 ppm in nutrient medium; 100% = all animals killed
row,SMILES,efficacy (kill in %)
1,C#CCn1nc(NC(=O)c2cccnc2)cc1CC [Compound I-1-40],100%
2,C#CCn1nc(NC(=O)c2cccnc2)cc1C [Compound I-1-19],100%
3,COCn1nc(N(C)C(=O)c2cccnc2)cc1C [Compound I-1-178],80%
4,Cc1cc(NC(=O)c2cccnc2)nn1C(=O)c1cccnc1 [Compound I-1-28],100%
5,Cc1cc(NC(=O)c2cccnc2)nn1CC1OCCO1 [Compound I-1-180],100%
6,COCn1nc(NC(=O)c2cccnc2)cc1C [Compound I-1-175],100%
7,Cc1cc(NC(=O)c2cccnc2)nn1C(C)C [Compound I-1-49],100%
8,COc1nn(Cn2nc(NC(=O)c3cccnc3)cc2C)c(=O)n1C1CC1 [Compound I-1-144],100%
9,Cc1cc(N(CC#N)C(=O)c2cccnc2)nn1Cc1ncccn1 [Compound I-1-262],100%
10,Cc1cc(NC(=O)c2cccnc2)nn1-c1cnccn1 [Compound I-1-55],100%
11,Cc1cc(NC(=O)c2cccnc2)nn1CC(F)(F)F [Compound I-1-133],100%
12,COCC(C)NC(=O)n1nc(NC(=O)c2cccnc2)cc1C (centres unmarked) [Compound I-1-166],100%
13,Cc1cc(C)nc(Cn2nc(NC(=O)c3cccnc3)cc2C)n1 [Compound I-1-36],100%
14,Cc1cc(NC(=O)c2cccnc2)nn1Cc1nc2ccc(Cl)cc2o1 [Compound I-1-342],100%
15,Cc1cc(NC(=O)c2cccnc2)nn1Cc1ccccn1 [Compound I-1-6],100%
16,Cc1cc(NC(=O)c2cccnc2)nn1CC[S+](C)[O-] (centres unmarked) [Compound I-1-183],100%
17,Cc1cc(NC(=O)c2cccnc2)nn1C1CCCC1 [Compound I-1-229],100%
18,Cc1cc(NC(=O)c2cccnc2)nn1-c1ncccc1Cl [Compound I-1-34],100%
19,Cc1ccn(Cn2nc(NC(=O)c3cccnc3)cc2C)n1 [Compound I-1-192],100%
20,Cc1cc(NC(=O)c2cccnc2)nn1C(=O)NCC1COCCO1 (centres unmarked) [Compound I-1-310],100%
21,CSCCn1nc(NC(=O)c2cccnc2)cc1C [Compound I-1-184],100%
22,COCC(=O)n1nc(NC(=O)c2cccnc2)cc1C [Compound I-1-261],100%
23,Cc1cc(NC(=O)c2cccnc2)nn1S(=O)(=O)N(C)C [Compound I-1-231],100%
24,Cc1cc(NC(=O)c2cccnc2)nn1CC(C)C [Compound I-1-12],100%
25,Cc1cc(NC(=O)c2cccnc2)nn1Cc1nccs1 [Compound I-1-14],100%
26,Cc1ccnn1Cn1nc(NC(=O)c2cccnc2)cc1C [Compound I-1-220],100%
27,Cc1cc(NC(=O)c2cccnc2)nn1CCF [Compound I-1-5],100%
28,Cc1cc(NC(=O)c2cccnc2)nn1Cc1ccccc1 [Compound I-1-46],100%
